These results are taken from PubChem BioAssay (NCI).

Among the test systems are HOP-62 NSCLC; NCI-H522 lung; NCI-H23 lung; HCC-2998 colon; SNB-75 CNS; SK-OV-3 ovarian; IGROV1 ovarian; HL-60(TB) leukemia; RXF 393 renal; MDA-MB-435.
Common to all, as to test: NCI-60 cell line screen, 48 h

Structures are written as SMILES.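 These data come from cells grown in 96-well plates and exposed to compound for 48 hours at five concentrations. TGI marks complete inhibition of growth.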

With `CC(=O)OCC(=O)[C@@]1(O)CC[C@H]2[C@@H]3CCC4=CC(=O)[C@H](C)C[C@]4(C)[C@H]3[C@@H](O)C[C@@]21C`, the TGI in the experiment on HOP-62 NSCLC, in the experiment on NCI-H522 lung, in the experiment on NCI-H23 lung, in the experiment with HCC-2998 colon, in the experiment with SNB-75 CNS and with SK-OV-3 ovarian was more than 100 µM in each case. For the same compound, the TGI in the experiment on IGROV1 ovarian and with HL-60(TB) leukemia was more than 100 µM in each case.
On to `COc1cc(/C=C/C(=O)c2sc(-n3nc(-c4ccccc4)cc3-c3ccccc3)nc2C)ccc1O`, for which the TGI in the experiment on HOP-62 NSCLC, with NCI-H522 lung, in the experiment on NCI-H23 lung, with HCC-2998 colon, in the experiment on SNB-75 CNS and with SK-OV-3 ovarian was more than 100 µM in each case. For the same compound, the TGI in the experiment on RXF 393 renal, with IGROV1 ovarian and in the experiment on HL-60(TB) leukemia was more than 100 µM each time.
On to `COc1cc2c(cc1OC)-c1[nH]c3ccc(C#N)cc3c1CC(=O)N2`, for which the TGI in the experiment on HOP-62 NSCLC, in the experiment on NCI-H522 lung, in the experiment on NCI-H23 lung, in the experiment on SNB-75 CNS, with MDA-MB-435 and in the experiment on SK-OV-3 ovarian was more than 100 µM in each case. Besides, the TGI was more than 100 µM with IGROV1 ovarian and 7.45 µM with HL-60(TB) leukemia.
With `COC(=O)c1[nH]c(=S)[nH]c(=O)c1-c1ccc(Cl)cc1`, the TGI in the experiment on HOP-62 NSCLC, in the experiment with NCI-H522 lung, in the experiment with NCI-H23 lung, in the experiment with HCC-2998 colon, in the experiment with SNB-75 CNS and with SK-OV-3 ovarian was more than 50 µM each time. Further, the TGI in the experiment on RXF 393 renal, in the experiment with IGROV1 ovarian and in the experiment with HL-60(TB) leukemia was more than 50 µM in each case.
In the case of `COc1ccc(/C=C2\OC(=O)C(Cl)=C2c2ccc(OC)cc2)cc1`, the TGI in the experiment on HOP-62 NSCLC, with NCI-H522 lung, in the experiment on SNB-75 CNS, in the experiment with MDA-MB-435, with SK-OV-3 ovarian and with IGROV1 ovarian was more than 100 µM in each case. The same compound registered a TGI with HL-60(TB) leukemia of more than 100 µM.
Take `NC(=O)OCC(COc1ccc(Cl)cc1)OC(=O)c1ccccc1Cl` (configuration not stated): the TGI is 49.2 µM in the experiment on HOP-62 NSCLC; 31.9 µM with NCI-H522 lung; 44.8 µM in the experiment on NCI-H23 lung; 43.5 µM with HCC-2998 colon; more than 100 µM in the experiment on SNB-75 CNS; more than 100 µM in the experiment on SK-OV-3 ovarian. The TGI in the experiment on RXF 393 renal was found to be 25.7 µM; with IGROV1 ovarian, 59.9 µM; in the experiment on HL-60(TB) leukemia it was 41.5 µM.
Take `Cc1c2ccncc2cc2c1sc1ccncc12`: the TGI in the experiment with HOP-62 NSCLC worked out at 8.37 µM; in the experiment with NCI-H522 lung, 9.09 µM; in the experiment on NCI-H23 lung, 10.7 µM; in the experiment on HCC-2998 colon, 15.4 µM; in the experiment on SNB-75 CNS it was 15.4 µM; in the experiment with SK-OV-3 ovarian, 29 µM. The TGI was 12.4 µM with RXF 393 renal, 39.3 µM with IGROV1 ovarian and 6.79 µM in the experiment on HL-60(TB) leukemia.
On to `O=c1n(/N=C/c2ccccc2)c(=O)n2n1C1C=CC2CC1`, for which the TGI in the experiment on HOP-62 NSCLC, in the experiment with NCI-H23 lung, with SNB-75 CNS, with MDA-MB-435, in the experiment with SK-OV-3 ovarian and in the experiment on IGROV1 ovarian was more than 100 µM each time. The same compound showed a TGI in the experiment on HL-60(TB) leukemia of more than 100 µM.
For `COc1cc(NC(C)=O)c2[nH]c3c(C)cc(NC(C)=O)c(C)c3c2c1`, the TGI in the experiment with NCI-H522 lung, in the experiment with NCI-H23 lung, in the experiment on HCC-2998 colon, in the experiment on SNB-75 CNS, in the experiment with SK-OV-3 ovarian and in the experiment on RXF 393 renal was more than 100 µM in each case. For the same compound, the TGI in the experiment on IGROV1 ovarian and in the experiment with HL-60(TB) leukemia was more than 100 µM each time.
Regarding `NS(=O)(=O)c1cc2c(cc1Cl)NC(C(=O)c1cc(=O)c3ccc(O)cc3o1)=NS2(=O)=O`, the TGI in the experiment on HOP-62 NSCLC, in the experiment on NCI-H522 lung, with NCI-H23 lung, with HCC-2998 colon, in the experiment with SNB-75 CNS and in the experiment on SK-OV-3 ovarian was more than 100 µM throughout. In addition, the TGI in the experiment with RXF 393 renal, with IGROV1 ovarian and with HL-60(TB) leukemia was more than 100 µM throughout.
As for `c1ccc(Nc2nnc(CSc3nc(-c4ccccc4)c(-c4ccccc4)[nH]3)s2)cc1`, the TGI in the experiment with HOP-62 NSCLC is 41 µM; in the experiment on NCI-H522 lung, 34.9 µM; in the experiment on NCI-H23 lung, 45.1 µM; with SNB-75 CNS it was 85.6 µM; in the experiment on SK-OV-3 ovarian it was 56 µM; with IGROV1 ovarian, 42.2 µM. Moreover, the TGI in the experiment with HL-60(TB) leukemia came out at 31.4 µM.
For the compound `C=CCONC(=O)c1ccc(Cl)cc1`, the TGI in the experiment with HOP-62 NSCLC, in the experiment on NCI-H522 lung, in the experiment on NCI-H23 lung, with HCC-2998 colon, in the experiment with SNB-75 CNS and in the experiment on SK-OV-3 ovarian was more than 100 µM each time. The TGI in the experiment on RXF 393 renal, with IGROV1 ovarian and with HL-60(TB) leukemia was more than 100 µM in each case.
`O=S(=O)([O-])[O-].[Fe+2].c1ccc(/C(=N\Nc2ccccn2)c2ccccn2)cc1`: the TGI in the experiment on HOP-62 NSCLC turned out to be 12 µM; in the experiment on NCI-H522 lung, 3.55 µM; with NCI-H23 lung, 8.68 µM; in the experiment on HCC-2998 colon, 16.2 µM; with SNB-75 CNS it was 14.7 µM; in the experiment on SK-OV-3 ovarian, 4.25 µM. In addition, the results for the TGI in the experiment with RXF 393 renal, with IGROV1 ovarian and with HL-60(TB) leukemia were 11.7 µM, 5.46 µM and 4.62 µM, respectively.
On to `CCOC(=O)CSc1ccnc(=O)[nH]1`, for which the TGI in the experiment with NCI-H522 lung, in the experiment on SNB-75 CNS, in the experiment on SK-OV-3 ovarian, with RXF 393 renal, in the experiment with IGROV1 ovarian and with HL-60(TB) leukemia was more than 100 µM in each case.
Regarding `CN(C(=O)C12C3C4C1C1C2C3C41I)C(C)(C)C` (configuration not stated), the TGI in the experiment with HOP-62 NSCLC, in the experiment with NCI-H522 lung, with NCI-H23 lung, in the experiment on HCC-2998 colon, in the experiment on SNB-75 CNS and in the experiment on SK-OV-3 ovarian was more than 100 µM in each case. For the same compound, the TGI in the experiment with IGROV1 ovarian is more than 100 µM; with HL-60(TB) leukemia, more than 92.7 µM.
As for `COc1cc(/C=C\c2ccccn2)cc(OC)c1OC`, the TGI in the experiment with HOP-62 NSCLC, in the experiment with NCI-H522 lung, with NCI-H23 lung, in the experiment on SNB-75 CNS, in the experiment with RXF 393 renal and with IGROV1 ovarian was more than 100 µM throughout. For the same compound, the TGI in the experiment with HL-60(TB) leukemia was more than 100 µM.
Regarding `CC#COP(=O)(OCC)OCC`, the TGI with HOP-62 NSCLC, with NCI-H522 lung, in the experiment on NCI-H23 lung, with HCC-2998 colon, in the experiment with SK-OV-3 ovarian and with IGROV1 ovarian was more than 100 µM in each case. Besides, the TGI in the experiment with HL-60(TB) leukemia is 60.6 µM.
Regarding `Cn1c(O)c(C(=O)Nc2cccs2)c(=O)[nH]c1=S`, the TGI amounted to 40.6 µM in the experiment with HOP-62 NSCLC; 27.6 µM in the experiment on NCI-H522 lung; 28 µM in the experiment on NCI-H23 lung; 31.3 µM with SNB-75 CNS; 72.5 µM in the experiment with SK-OV-3 ovarian; 52 µM in the experiment on IGROV1 ovarian. The compound also came in with a TGI in the experiment on HL-60(TB) leukemia of more than 100 µM.
For `NC(=S)NNC(=O)/C(=C/c1ccc(/C=C(\NC(=O)c2ccccc2)C(=O)NNC(N)=S)cc1)NC(=O)c1ccccc1`, the TGI with HOP-62 NSCLC is more than 100 µM; with NCI-H522 lung, more than 71.1 µM; with NCI-H23 lung, more than 100 µM; with HCC-2998 colon, more than 100 µM; with SNB-75 CNS, 85 µM; in the experiment with SK-OV-3 ovarian it was more than 100 µM. In addition, the results for the TGI in the experiment on RXF 393 renal, in the experiment on IGROV1 ovarian and in the experiment with HL-60(TB) leukemia were more than 100 µM, more than 100 µM and more than 31.6 µM, respectively.
Consider `CCOC(=O)/C(N=Nc1ccc(-n2c(C)nc3ccccc3c2=O)cc1)=C(/C)O`, for which the TGI is more than 100 µM in the experiment on HOP-62 NSCLC; more than 100 µM with NCI-H23 lung; 78.4 µM in the experiment on SNB-75 CNS; 59.8 µM in the experiment with MDA-MB-435; more than 100 µM in the experiment on SK-OV-3 ovarian; more than 100 µM with IGROV1 ovarian. In addition, in the experiment with HL-60(TB) leukemia, the TGI amounted to 41.2 µM.
Regarding `CC(C)=CCCC1(C)C=Cc2c(c(C)cc3c2[nH]c2cc(O)ccc23)O1` (configuration not stated), the TGI in the experiment with HOP-62 NSCLC, in the experiment with NCI-H522 lung, in the experiment with HCC-2998 colon, in the experiment with SK-OV-3 ovarian, in the experiment with RXF 393 renal and in the experiment with IGROV1 ovarian was more than 25 µM throughout. The same compound yielded a TGI in the experiment on HL-60(TB) leukemia of more than 25 µM.
For `CCCCCCn1c(SCC)c2ccccc2c1-c1nc(F)nc(F)n1`, the TGI in the experiment on HOP-62 NSCLC, with NCI-H522 lung, with NCI-H23 lung, in the experiment with HCC-2998 colon, in the experiment with SNB-75 CNS and in the experiment with SK-OV-3 ovarian was more than 100 µM throughout. Besides, the TGI in the experiment with RXF 393 renal, in the experiment on IGROV1 ovarian and with HL-60(TB) leukemia was more than 100 µM each time.
For `O=C(NO)c1ccc([N+](=O)[O-])cc1`, the TGI with HOP-62 NSCLC is more than 100 µM; with NCI-H522 lung, 97.2 µM; in the experiment on NCI-H23 lung, more than 100 µM; in the experiment with HCC-2998 colon, more than 100 µM; with SNB-75 CNS, 93.8 µM; in the experiment on SK-OV-3 ovarian, more than 100 µM. Further, the values for the TGI with RXF 393 renal, in the experiment with IGROV1 ovarian and with HL-60(TB) leukemia were 71.8 µM, more than 100 µM and 50.9 µM, respectively.
In the case of `CC1CC2OC(=O)C3CC(O)CC(=C23)[C@@]12C[C@@H](c1ccoc1)OC2=O` (some centres not stated), the TGI in the experiment on NCI-H522 lung, in the experiment on NCI-H23 lung, in the experiment with HCC-2998 colon, in the experiment on SNB-75 CNS, with SK-OV-3 ovarian and with RXF 393 renal was more than 100 µM throughout. The TGI in the experiment on IGROV1 ovarian and in the experiment on HL-60(TB) leukemia was more than 100 µM throughout.
